Where two headings read alike, the source gives them in different places.
Key:
CaV2.2 = target: T1, CaV2.2 (Homo sapiens, UniProt Q00975); assay: High-throughput CaV2.2/Kir2.3 FLIPR fluorescent assay; type: cell-based; details: Fluo-4 FLIPR, closed or inactivated state not stated, read-out: FLIPR data CaV2.2
T1 construct: expressed in transfected cells; host or cells: unnamed doxycycline-inducible cell line
Summary of the method: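 IC50 was derived by logistic fitting of the FLIPR Fluo-4 signal recorded over 3 min after a 130 mM KCl stimulus. Before stimulation, cells (channel expression induced with doxycycline, 29 °C on assay day) were kept in pH 7.4 buffer with 2 mM KCl for the closed-state format or 12.5 mM KCl for the inactivated-state format.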

CaV3.2 = target: T2, CaV3.2 (Homo sapiens, UniProt O95180); assay: High-throughput CaV3.2/Kir2.3 T-type FLIPR fluorescent assay; type: cell-based; details: Fluo-4 FLIPR, closed or inactivated state not stated
T2 construct: expressed in transfected cells; host or cells: unnamed doxycycline-inducible cell line
Method: Cells were plated in 384-well, clear-bottom, black-walled, poly-D-lysine coated plates (Becton Dickinson, Franklin Lake, N.J.) 2 days prior to use in the FLIPR assay. 100 µL of cells (1.2×10^6 cell/mL) containing doxycyline (Sigma-Aldrich, 1.5 μg/mL; to induce channel expression) were added to each well using a Multidrop (Thermo Scientific, Waltham, Mass.) and were maintained in 5% CO2 incubator at 37° C. On the morning of the assay, cells were transferred to a 5% CO2 incubator at 29° C.
Cells were washed with a wash buffer containing (in mM): 118 NaCl, 18.4 HEPES, 11.7 D-glucose, 2 CaCl2, 0.5 MgSO4, 4.7 KCl, and 1.2 KH2PO4, with the pH adjusted to 7.2 with
NaOH. 4.4 μM of the fluorescent indicator dye Fluo-4 (Invitrogen) prepared in pluronic acid (Sigma-Aldrich) was loaded into the wells and incubated for 45 minutes at 29° C. in 5% CO2. Cells were then rinsed with either a 2 mM KCl closed-state buffer (in mM: 138.5 NaCl, 10 HEPES, 10 D-glucose, 1 CaCl2, and 2 KCl, with the pH adjusted to 7.4 with NaOH) when performing the closed-state assay or 7.6 mM KCl inactivated-state buffer (in mM: 130.9 NaCl, 10 HEPES, 10 D-glucose, 1 CaCl2, and 7.6 mM KCl, with the pH adjusted to 7.4 with NaOH) when performing the inactivated-state assay. Concentration-dependent response curves were generated from 5 mM stock solutions prepared in DMSO (Sigma-Aldrich), diluted in either the 2 mM KCl buffer or 7.6 mM KCl buffer, and incubated for 20 minutes at 29° C. in 5% CO2. Calcium entry was evoked with an addition of either 12 mM KCl stimulation buffer (in mM: 128.5 NaCl, 10 HEPES, 10 D-glucose, 1 CaCl2, and 12 KCl, with the pH adjusted to 7.4 with NaOH) or 14.5 mM KCl stimulation buffer (in mM: 126 NaCl, 10 HEPES, 10 D-glucose, 1 CaCl2, and 14.5 KCl, with the pH adjusted to 7.4 with NaOH) for the closed-state or inactivated-state assay respectively. A change in the Fluo-4 fluorescence signal was assessed using FLIPR^TETRA™ instrument (Molecular Devices, Sunnyvale, Calif.) for 3 minutes following the elevation of extracellular KCl using an illumination wavelength of 470-495 nm with emissions recorded at 515-575 nm.
Concentration-dependent response curves were obtained by comparing the fluorescence signal in the presence of compound and fitted with a logistic function (1) to obtain the concentration that inhibited 50% (IC50) of the RLU signal using OriginPro v.7.5 software (OriginLab, Northampton, Mass.).
To assess the quality of the FLIPR assays the Z-factor (2) was used to quantify the suitability of the assay conditions using the following equation: […]
Data are expressed as mean and standard deviation (SD).

T1 sequence (Q00975 whole entry): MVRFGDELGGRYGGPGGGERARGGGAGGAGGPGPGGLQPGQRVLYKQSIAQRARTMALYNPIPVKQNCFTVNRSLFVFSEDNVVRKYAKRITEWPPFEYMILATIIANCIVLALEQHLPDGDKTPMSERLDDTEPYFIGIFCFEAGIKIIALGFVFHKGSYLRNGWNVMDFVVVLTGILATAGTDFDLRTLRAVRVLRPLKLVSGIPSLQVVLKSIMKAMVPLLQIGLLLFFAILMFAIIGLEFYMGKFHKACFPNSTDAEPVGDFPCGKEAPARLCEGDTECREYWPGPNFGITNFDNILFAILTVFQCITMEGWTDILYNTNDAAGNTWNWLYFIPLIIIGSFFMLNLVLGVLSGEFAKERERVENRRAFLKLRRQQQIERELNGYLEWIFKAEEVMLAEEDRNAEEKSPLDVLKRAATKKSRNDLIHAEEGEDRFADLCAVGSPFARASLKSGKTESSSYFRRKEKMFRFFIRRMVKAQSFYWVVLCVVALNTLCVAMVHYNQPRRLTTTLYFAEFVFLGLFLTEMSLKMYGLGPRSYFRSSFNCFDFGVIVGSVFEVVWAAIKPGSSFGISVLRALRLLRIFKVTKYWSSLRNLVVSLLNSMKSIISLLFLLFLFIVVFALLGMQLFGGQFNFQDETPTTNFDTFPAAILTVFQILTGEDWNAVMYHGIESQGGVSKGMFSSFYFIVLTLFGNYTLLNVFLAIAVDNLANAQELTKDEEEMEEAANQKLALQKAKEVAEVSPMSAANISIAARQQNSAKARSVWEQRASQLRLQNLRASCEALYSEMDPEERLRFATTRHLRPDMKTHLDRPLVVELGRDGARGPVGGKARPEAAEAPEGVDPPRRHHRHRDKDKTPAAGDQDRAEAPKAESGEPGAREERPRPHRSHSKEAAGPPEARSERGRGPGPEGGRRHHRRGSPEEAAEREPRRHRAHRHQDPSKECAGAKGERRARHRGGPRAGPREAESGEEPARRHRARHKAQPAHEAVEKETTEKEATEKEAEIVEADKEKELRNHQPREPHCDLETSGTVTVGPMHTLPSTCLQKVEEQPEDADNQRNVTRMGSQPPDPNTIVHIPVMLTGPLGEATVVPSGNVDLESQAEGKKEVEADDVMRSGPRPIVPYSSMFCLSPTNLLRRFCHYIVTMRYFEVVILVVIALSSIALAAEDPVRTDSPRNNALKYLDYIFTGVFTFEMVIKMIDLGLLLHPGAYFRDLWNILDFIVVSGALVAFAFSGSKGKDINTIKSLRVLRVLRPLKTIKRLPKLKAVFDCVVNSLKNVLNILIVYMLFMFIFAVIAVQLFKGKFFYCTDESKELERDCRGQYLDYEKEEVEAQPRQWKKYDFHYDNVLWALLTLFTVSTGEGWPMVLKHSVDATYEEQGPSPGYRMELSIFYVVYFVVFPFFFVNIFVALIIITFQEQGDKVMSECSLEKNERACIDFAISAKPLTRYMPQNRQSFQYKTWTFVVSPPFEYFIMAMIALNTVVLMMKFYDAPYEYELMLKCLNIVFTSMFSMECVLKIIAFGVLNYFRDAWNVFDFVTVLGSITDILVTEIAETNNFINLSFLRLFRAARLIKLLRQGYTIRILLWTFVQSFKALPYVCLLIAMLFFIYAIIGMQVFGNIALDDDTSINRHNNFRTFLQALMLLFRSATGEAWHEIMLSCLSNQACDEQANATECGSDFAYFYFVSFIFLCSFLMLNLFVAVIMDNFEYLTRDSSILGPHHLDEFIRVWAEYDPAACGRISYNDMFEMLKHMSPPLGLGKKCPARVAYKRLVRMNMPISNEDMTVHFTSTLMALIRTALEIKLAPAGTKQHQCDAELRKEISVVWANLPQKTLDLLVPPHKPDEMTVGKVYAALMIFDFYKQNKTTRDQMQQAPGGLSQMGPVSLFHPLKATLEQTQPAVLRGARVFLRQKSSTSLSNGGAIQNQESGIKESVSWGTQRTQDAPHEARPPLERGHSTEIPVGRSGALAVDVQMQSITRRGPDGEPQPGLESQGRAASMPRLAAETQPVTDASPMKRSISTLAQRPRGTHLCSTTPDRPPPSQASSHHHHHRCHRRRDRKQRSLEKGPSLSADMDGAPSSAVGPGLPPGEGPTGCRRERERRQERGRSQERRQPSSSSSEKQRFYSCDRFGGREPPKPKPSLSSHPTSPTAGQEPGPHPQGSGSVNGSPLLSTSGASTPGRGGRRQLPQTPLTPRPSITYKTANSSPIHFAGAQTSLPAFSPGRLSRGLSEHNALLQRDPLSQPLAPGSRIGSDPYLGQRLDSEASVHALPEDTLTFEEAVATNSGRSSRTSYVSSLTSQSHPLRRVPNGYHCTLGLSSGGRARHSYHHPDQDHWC
T1 sequence (P54284 whole entry partner): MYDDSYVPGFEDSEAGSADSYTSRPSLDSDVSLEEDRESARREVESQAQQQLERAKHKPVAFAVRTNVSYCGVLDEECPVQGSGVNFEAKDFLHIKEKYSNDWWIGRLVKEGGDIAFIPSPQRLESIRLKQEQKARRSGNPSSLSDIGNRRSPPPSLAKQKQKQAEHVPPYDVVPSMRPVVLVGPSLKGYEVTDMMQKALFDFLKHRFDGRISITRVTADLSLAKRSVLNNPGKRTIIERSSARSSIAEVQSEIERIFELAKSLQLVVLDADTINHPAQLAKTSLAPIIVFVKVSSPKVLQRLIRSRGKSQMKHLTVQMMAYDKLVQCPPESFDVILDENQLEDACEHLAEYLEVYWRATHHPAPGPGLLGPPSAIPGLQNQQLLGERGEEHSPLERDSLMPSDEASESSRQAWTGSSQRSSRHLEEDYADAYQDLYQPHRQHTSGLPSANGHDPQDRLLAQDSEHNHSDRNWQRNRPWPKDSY
T1 sequence (P54289 25-946 partner limits assumed): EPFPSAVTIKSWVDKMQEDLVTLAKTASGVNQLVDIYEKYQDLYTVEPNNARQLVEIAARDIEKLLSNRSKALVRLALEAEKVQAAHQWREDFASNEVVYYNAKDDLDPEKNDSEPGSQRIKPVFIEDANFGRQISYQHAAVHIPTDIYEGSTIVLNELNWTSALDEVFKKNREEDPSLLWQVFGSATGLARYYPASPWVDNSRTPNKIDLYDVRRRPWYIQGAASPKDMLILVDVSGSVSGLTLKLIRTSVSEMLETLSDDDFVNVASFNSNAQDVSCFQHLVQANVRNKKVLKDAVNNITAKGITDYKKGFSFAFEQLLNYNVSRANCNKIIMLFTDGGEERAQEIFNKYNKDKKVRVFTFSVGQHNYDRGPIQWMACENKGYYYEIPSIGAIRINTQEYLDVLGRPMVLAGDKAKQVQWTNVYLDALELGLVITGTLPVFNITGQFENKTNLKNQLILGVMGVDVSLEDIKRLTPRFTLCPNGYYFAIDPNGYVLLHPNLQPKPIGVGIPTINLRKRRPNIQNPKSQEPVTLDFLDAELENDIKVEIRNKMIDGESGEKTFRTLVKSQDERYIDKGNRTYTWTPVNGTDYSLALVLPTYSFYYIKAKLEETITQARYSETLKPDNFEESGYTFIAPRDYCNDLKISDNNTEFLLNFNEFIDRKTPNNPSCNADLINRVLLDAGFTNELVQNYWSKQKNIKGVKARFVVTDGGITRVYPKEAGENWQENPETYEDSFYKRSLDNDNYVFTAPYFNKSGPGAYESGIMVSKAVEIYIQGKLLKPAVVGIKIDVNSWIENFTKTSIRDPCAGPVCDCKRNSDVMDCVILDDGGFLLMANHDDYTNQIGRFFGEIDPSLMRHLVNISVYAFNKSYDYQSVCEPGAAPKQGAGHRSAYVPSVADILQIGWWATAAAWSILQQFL
T1 sequence (P54289 947-1103 partner limits assumed): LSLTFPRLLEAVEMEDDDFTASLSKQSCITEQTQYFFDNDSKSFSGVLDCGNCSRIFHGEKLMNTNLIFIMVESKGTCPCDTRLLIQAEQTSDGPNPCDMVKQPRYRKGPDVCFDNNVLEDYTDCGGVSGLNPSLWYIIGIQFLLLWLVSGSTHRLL

Structure (SMILES)	IC50 (CaV2.2; Table 5) [nM]	IC50 (CaV3.2; Table 5) [nM]	IC50 (CaV2.2; Table 4) [nM]	IC50 (CaV3.2; Table 4) [nM]
COc1ccc(C(=O)NCC(C)(C)S(=O)(=O)c2cccc(C(F)(F)F)c2)cc1Cl [Compound 160, 3-chloro-4-methoxy-N-(2-methyl-2-((3-(trifluoromethyl)phenyl)sulfonyl)propyl)benzamide]	1020	3990	–	–
CC(C)(CNC(=O)c1ccc(Cl)cc1)S(=O)(=O)c1cccc(C(F)(F)F)c1 [Compound 165, 4-chloro-N-(2-methyl-2-((3-(trifluoromethyl)phenyl)sulfonyl)propyl)benzamide]	1530	6500	–	–
NC1(C(=O)NCc2ccc(S(=O)(=O)c3cccc(C(F)(F)F)c3)cc2)CCC2(CC1)OCCO2 [Compound 83, 8-amino-N-(4-((3-(trifluoromethyl)phenyl)sulfonyl)benzyl)-1,4-dioxaspiro[4.5]decane-8-carboxamide]	–	–	1310	9220
COc1cc(C)ccc1C(=O)NCC(C)(C)S(=O)(=O)c1cccc(C(F)(F)F)c1 [Compound 170, 2-methoxy-4-methyl-N-(2-methyl-2-((3-(trifluoromethyl)phenyl)sulfonyl)propyl)benzamide]	1860	7210	–	–
O=C(CCC(F)(F)F)NCc1cccc(S(=O)(=O)c2cccc(C(F)(F)F)c2)c1 [Compound 54, 4,4,4-trifluoro-N-(3-((3-(trifluoromethyl)phenyl)sulfonyl)benzyl)butanamide]	–	–	400	6710
O=C1c2ccc(C(F)(F)F)nc2CN1Cc1ccccc1S(=O)(=O)c1cccc(C(F)(F)F)c1 [Compound 58, 2-(trifluoromethyl)-6-(2-((3-(trifluoromethyl)phenyl)sulfonyl)benzyl)-6,7-dihydro-5H-pyrrolo[3,4-b]pyridin-5-one]	–	–	2680	1480
CC(C)(CNC(=O)c1ccnc(N2CCCC2)c1)S(=O)(=O)c1cccc(C(F)(F)F)c1 [Compound 161, N-(2-methyl-2-((3-(trifluoromethyl)phenyl)sulfonyl)propyl)-2-(pyrrolidin-1-yl)isonicotinamide]	1120	8220	–	–
CC(C)(CNC(=O)c1ccc(C(F)(F)F)nc1)S(=O)(=O)c1cccc(C(F)(F)F)c1 [Compound 175, N-(2-methyl-2-((3-(trifluoromethyl)phenyl)sulfonyl)propyl)-6-(trifluoromethyl)nicotinamide]	3190	5320	–	–
